Patent US10696692B2, “Amido-benzyl sulfone and sulfoxide derivates” (Forma TM, LLC, priority 2012, dated 2020)
Like-named read-outs stand apart in the source and are kept apart here.

Tests used:
NAMPT = NAMPT (Homo sapiens (Human), UniProt P43490); assay: Assay 1: Biochemical Inhibition Assay (NAMPT enzymatic reaction, NMN quantified by mass spectrometry); conditions: read-out: Biochemical (IC50);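 also: recombinant His-tagged human NAMPT preincubated with compound 15 min, then reacted 30 min at rt with 1 µM NAM, 100 µM PRPP, 2.5 mM ATP, NMN product read by RapidFire MS, normalized to L-Cystathionine internal standard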
A2780 cells = assay: Assay 2: In-Vitro Cell Proliferation Assay (A2780 cells, SRB readout, 72 hours); format: cell-based; conditions: A2780 cells, 72 hours, SRB, read-out: Cell Proliferation (IC50);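 also: viable cells counted via sulforhodamine B staining, absorbance at 570 nm, after 72 h exposure at 37 °C, DMSO 0.1% as control, media-only background subtracted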

Chain of NAMPT (P43490 whole entry): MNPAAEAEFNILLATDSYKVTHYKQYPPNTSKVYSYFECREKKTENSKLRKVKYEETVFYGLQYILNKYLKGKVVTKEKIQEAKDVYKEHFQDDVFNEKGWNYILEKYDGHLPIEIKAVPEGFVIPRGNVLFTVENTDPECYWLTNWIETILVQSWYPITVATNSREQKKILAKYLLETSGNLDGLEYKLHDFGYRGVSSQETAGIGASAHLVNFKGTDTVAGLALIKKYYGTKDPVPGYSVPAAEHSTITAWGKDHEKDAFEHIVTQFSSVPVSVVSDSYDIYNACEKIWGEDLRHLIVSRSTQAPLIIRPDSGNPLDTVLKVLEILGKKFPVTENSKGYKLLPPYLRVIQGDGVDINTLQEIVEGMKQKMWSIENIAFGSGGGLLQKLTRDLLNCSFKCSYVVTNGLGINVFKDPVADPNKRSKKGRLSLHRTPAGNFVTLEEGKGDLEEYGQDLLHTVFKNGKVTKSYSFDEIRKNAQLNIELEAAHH

For `CCCN1CCC([S+]([O-])c2ccc(CNC(=O)c3cc4ccncc4o3)cc2)CC1` (stereo not drawn) [Example 358, N-[[4-[(1-propyl-4-piperidyl)sulfinyl]phenyl]methyl]furo[2,3-c]pyridine-2-carboxamide], the IC50 (NAMPT) was 0.0193 µM and the IC50 (A2780 cells) was 0.00458 µM.
`CC(C)N1CCC([S+]([O-])c2ccc(CNC(=O)c3ccc4nccn4c3)cc2)CC1` (stereo not drawn) [Example 362, N-[[4-[(1-isopropyl-4-piperidyl)sulfinyl]phenyl]methyl]imidazo[1,2-a]pyridine-6-carboxamide] showed an IC50 (NAMPT) of 0.035 µM and an IC50 (A2780 cells; Homo sapiens, A2780, 72 h) of 0.0221 µM.
Compound `CC(C)N1CCC([S+]([O-])c2ccc(CNC(=O)N3Cc4ccncc4C3)cc2)CC1` (stereo not drawn) [Example 363, N-[[4-[(1-isopropyl-4-piperidyl)sulfinyl]phenyl]methyl]-1,3-dihydropyrrolo[3,4-c]pyridine-2-carboxamide] has an IC50 (NAMPT) of 0.0537 µM and an IC50 (A2780 cells; Homo sapiens, A2780, 72 h) of 0.0456 µM.
Work on `O=C(NCc1ccc([S+]([O-])C2CCN(CC(F)(F)F)CC2)cc1)c1ccc2nccn2c1` (stereo not drawn) [Example 364, N-[[4-[[1-(2,2,2-tnfluoroethyl)-4-piperidyl]sulfinyl]phenyl]methyl]imidazo[1,2-a]pyridine-6-carboxamide] yielded an IC50 (NAMPT) of 0.00293 µM and an IC50 (A2780 cells; Homo sapiens, A2780, 72 h) of 0.00351 µM.
`O=C(NCc1ccc([S+]([O-])C2CCN(C3CCOCC3)CC2)cc1)N1Cc2ccncc2C1` (stereo not drawn) [Example 365, N-[[4-[(1-tetrahydropyran-4-yl-4-piperidyl)sulfinyl]phenyl]methyl]-1,3-dihydropyrrolo[3,4-c]pyridine-2-carboxamide] showed an IC50 (NAMPT) of 0.00202 µM and an IC50 (A2780 cells; Homo sapiens, A2780, 72 h) of 0.02 µM.
Compound `CC(C)N1CCC([S+]([O-])c2ccc(CNC(=O)c3cnc4[nH]ncc4c3)cc2)CC1` (stereo not drawn) [Example 366, N-[[4-[(1-isopropyl-4-piperidyl)sulfinyl]phenyl]methyl]-1H-pyrazolo[3,4-b]pyridine-5-carboxamide] has an IC50 (NAMPT) of 0.029 µM and an IC50 (A2780 cells; Homo sapiens, A2780, 72 h) of 0.0776 µM.
`O=C(NCc1ccc([S+]([O-])C2CCN(CC(F)(F)F)CC2)cc1)c1cnc2[nH]ncc2c1` (stereo not drawn) [Example 367, N-[[4-[[1-(2,2,2-trifluoroethyl)-4-piperidyl)sulfinyl]phenyl]methyl]-1H-pyrazolo[3,4-b]pyridine-5-carboxamide] was tested, and the IC50 (NAMPT) was 0.0881 µM and the IC50 (A2780 cells; Homo sapiens, A2780, 72 h) was 0.015 µM.
`CN1CCC([S+]([O-])c2ccc(CNC(=O)c3ccc4nccn4c3)cc2)CC1` (stereo not drawn) [Example 371, N-[[4-[(1-methyl-4-piperidyl)sulfinyl]phenyl]methyl]imidazo[1,2-a]pyridine-6-carboxamide] gave an IC50 (NAMPT) of 0.038 µM and an IC50 (A2780 cells; Homo sapiens, A2780, 72 h) of 0.0124 µM.
`CN1CCC([S+]([O-])c2ccc(CNC(=O)N3Cc4ccncc4C3)cc2)CC1` (stereo not drawn) [Example 372, N-[[4-[(1-methyl-4-piperidyl)sulfinyl]phenyl]methyl]-1,3-dihydropyrrolo[3,4-c]pyridine-2-carboxamide] gave an IC50 (NAMPT) of 0.0576 µM and an IC50 (A2780 cells; Homo sapiens, A2780, 72 h) of 0.0612 µM.
`CCN1CCC([S+]([O-])c2ccc(CNC(=O)c3cnc4[nH]ncc4c3)cc2)CC1` (stereo not drawn) [Example 373, N-[[4-[(1-ethyl-4-piperidyl)sulfinyl]phenyl]methyl]-1H-pyrazolo[3,4-b]pyridine-5-carboxamide] showed an IC50 (NAMPT) of 0.113 µM and an IC50 (A2780 cells; Homo sapiens, A2780, 72 h) of 0.0154 µM.
Work on `CC(C)CN1CCC([S+]([O-])c2ccc(CNC(=O)N3Cc4ccncc4C3)cc2)CC1` (stereo not drawn) [Example 374, N-[(4-[(1-isobutyl-4-piperidyl)sulfinyl]phenyl]methyl]-1,3-dihydropyrrolo[3,4-c]pyridine-2-carboxamide] yielded an IC50 (NAMPT) of 0.0152 µM and an IC50 (A2780 cells; Homo sapiens, A2780, 72 h) of 0.00283 µM.
For `CCCN1CCC([S+]([O-])c2ccc(CNC(=O)c3ccc4nccn4c3)cc2)CC1` (stereo not drawn) [Example 375, N-[[4-[(1-propyl-4-piperidyl)sulfinyl]phenyl]methyl)imidazo[1,2-a]pyridine-6-carboxamide], the IC50 (NAMPT) was 0.0275 µM and the IC50 (A2780 cells; Homo sapiens, A2780, 72 h) was 0.0245 µM.
`O=C(NCc1ccc([S+]([O-])C2CCN(CC(F)(F)F)CC2)cc1)N1Cc2ccncc2C1` (stereo not drawn) [Example 376, N-[[4-[[1-(2,2,2-tnfluoroethyl)-4-piperidyl]sulfinyl]phenyl]methyl]-1,3-dihydropyrrolo[3,4-c]pyridine-2-carboxamide] showed an IC50 (NAMPT) of 0.00582 µM and an IC50 (A2780 cells; Homo sapiens, A2780, 72 h) of 0.00854 µM.
In the case of `CCCN1CCC([S+]([O-])c2ccc(CNC(=O)N3Cc4ccncc4C3)cc2)CC1` (stereo not drawn) [Example 377, N-[[4-[(1-propyl-4-piperidyl)sulfinyl]phenyl]methyl]-1,3-dihydropyrrolo[3,4-c]pyridine-2-carboxamide], the IC50 (NAMPT) is reported as 0.0249 µM and the IC50 (A2780 cells; Homo sapiens, A2780, 72 h) is reported as 0.0241 µM.
In the case of `CCCN1CCC([S+]([O-])c2ccc(CNC(=O)c3cnc4[nH]ncc4c3)cc2)CC1` (stereo not drawn) [Example 378, N-[[4-[(1-propyl-4-piperidyl)sulfinyl]phenyl]methyl)-1H-pyrazolo[3,4-b]pyridine-5-carboxamide], the IC50 (NAMPT) is reported as 0.594 µM and the IC50 (A2780 cells; Homo sapiens, A2780, 72 h) is reported as 0.143 µM.
`CN1CCC([S+]([O-])c2ccc(CNC(=O)c3cc4ccncc4o3)cc2)CC1` (stereo not drawn) [Example 379, N-[[4-[(1-methyl-4-piperidyl)sulfinyl]phenyl]methyl]furo[2,3-c]pyridine-2-carboxamide] gave an IC50 (NAMPT) of 0.114 µM and an IC50 (A2780 cells; Homo sapiens, A2780, 72 h) of 0.0414 µM.
Work on `CCN1CCC([S+]([O-])c2ccc(CNC(=O)c3cc4ccncc4o3)cc2)CC1` (stereo not drawn) [Example 380, N-[[4-[(1-ethyl-4-piperidyl)sulfinyl]phenyl]methyl]furo[2,3-c]pyridine-2-carboxamide] yielded an IC50 (NAMPT) of 0.0683 µM and an IC50 (A2780 cells; Homo sapiens, A2780, 72 h) of 0.499 µM.
`O=C(NCc1ccc([S+]([O-])C2CCN(C3CCOCC3)CC2)cc1)c1cnc2[nH]ncc2c1` (stereo not drawn) [Example 381, N-[[4-[(1-tetrahydropyran-4-yl-4-piperidyl)sulfinyl]phenyl]methyl]-1H-pyrazolo[3,4-b]pyridine-5-carboxamide] was tested, and the IC50 (NAMPT) was 0.29 µM and the IC50 (A2780 cells; Homo sapiens, A2780, 72 h) was 0.201 µM.
In the case of `CCCN1CCC([S+]([O-])c2ccc(CNC(=O)c3cc4ccncc4o3)cc2)CC1` (stereo not drawn) [Example 382, N-[[4-[(1-propyl-4-piperidyl)sulfinyl]phenyl]methyl]furo[2,3-c]pyridine-2-carboxamide], the IC50 (NAMPT) is reported as 2 µM and the IC50 (A2780 cells) is reported as 2 µM.
With `CCCN1CCC([S@+]([O-])c2ccc(CNC(=O)c3cc4ccncc4o3)cc2)CC1` [Example 383, N-[[4-[(S)-(1-propyl-4-piperidyl)sulfinyl]phenyl]methyl]furo[2,3-c]pyridine-2-carboxamide] the IC50 (NAMPT) was 0.0357 µM and the IC50 (A2780 cells) was 0.00646 µM.
`O=C(NCc1ccc([S+]([O-])C2CCN(C3CCOCC3)CC2)cc1)c1ccc2nccn2c1` (stereo not drawn) [Example 384, N-[[4-[(1-tetrahydropyran-4-yl-4-piperidyl)sulfinyl]phenyl]methyl]imidazo[1,2-a] pyridine-6-carboxamide] gave an IC50 (NAMPT) of 0.0362 µM and an IC50 (A2780 cells; Homo sapiens, A2780, 72 h) of 0.0391 µM.
`CCN1CCC([S+]([O-])c2ccc(CNC(=O)N3Cc4ccncc4C3)cc2)CC1` (stereo not drawn) [Example 385, N-[[4-[(1-ethyl-4-piperidyl)sulfinyl]phenyl]methyl]-1,3-dihydropyrrolo[3,4-c]pyridine-2-carboxamide] gave an IC50 (NAMPT) of 0.0302 µM and an IC50 (A2780 cells; Homo sapiens, A2780, 72 h) of 0.0567 µM.
In the case of `CC(C)N1CCC([S+]([O-])c2ccc(CNC(=O)c3cc4cnccc4[nH]3)cc2)CC1` (stereo not drawn) [Example 386, N-[[4-[(1-isopropyl-4-piperidyl)sulfinyl]phenyl]methyl]-1H-pyrrolo[3,2-c]pyridine-2-carboxamide], the IC50 (NAMPT) is reported as 0.06 µM and the IC50 (A2780 cells; Homo sapiens, A2780, 72 h) is reported as 0.0706 µM.
“Imidazo[1,2-a]pyridine-6- carboxylic acid 4-[4- (tetrahydro-pyran-4-yl)- piperazine-1-sulfonyl]- benzylamide [Example 59]” showed an IC50 (NAMPT) of 0.0107 µM and an IC50 (A2780 cells) of 0.003 µM.
With “cis-Imidazo[1,2- a]pyridine-6-carboxylic acid 4-[(3aR,6aS)- (tetrahydro-furo[3,4- c]pyrrol-5-yl)sulfonyl]- benzylamide [Example 71]” the IC50 (NAMPT) was 0.0167 µM and the IC50 (A2780 cells) was 0.0064 µM.
Compound “tert-butyl 2-[4-[(imidazo[1,2- a]pyridine-6- carbonylamino)methyl]phenyl] sulfonyl-2,9- diazaspiro[4.5]decane-9- carboxylate [Example 242]” has an IC50 (NAMPT) of 0.00634 µM and an IC50 (A2780 cells) of 0.00299 µM.
“tert-butyl 7-[4-[(imidazo[1,2- a]pyridine-6- carbonylamino)methyl]phenyl] sulfonyl-1,7- diazaspiro[4.4]nonane-1- carboxylate [Example 236]” gave an IC50 (NAMPT) of 0.0133 µM and an IC50 (A2780 cells) of 0.00179 µM.
